Results: patent publication US5567692A, “9-[(substituted glycyl) amido)]-6-demethyl-6-deoxytetracyclines” (priority 1995, dated 1996)
Structures can show the parent of a compound that is named as a salt. Where two headings read alike, the source gives them in different places.

Columns and labels:
[1] = system: E. coli UBMS 88-1 Tet B; experiment: microbe, parasite or virus in culture; format: cell-based; details: Escherichia coli, UBMS881TETB, 18 h
[2] = system: E. coli MC 4100 Tet sens.; experiment: MIC, agar dilution; format: cell-based; details: Escherichia coli, 18 h
[3] = system: E. coli PRP1 Tet A; experiment: microbe, parasite or virus in culture; format: cell-based
[4] = system: E. coli MC 4100 TNIOC Tet B; experiment: microbe, parasite or virus in culture; format: cell-based; details: Escherichia coli, 18 h
[5] = system: E. coli J3272 Tet C; experiment: microbe, parasite or virus in culture; format: cell-based
[6] = system: E. coli UBMS 89-1 Tet M; experiment: microbe, parasite or virus in culture; format: cell-based; details: Escherichia coli, UBMS891TETM, 18 h
[7] = system: E. coli UBMS 89-2 Tet sens.; experiment: MIC, agar dilution; format: cell-based; details: Escherichia coli, 18 h
[8] = system: E. coli J2175; experiment: MIC, agar dilution; format: cell-based; details: Escherichia coli, 18 h, read-out: MIC
[9] = system: E. coli BAJ9003 IMP MUT; experiment: microbe, parasite or virus in culture; format: cell-based; details: Escherichia coli, BAJ9003IMPMUT, 18 h
[10] = system: E. coli UBMS 90-4 Tet M; experiment: microbe, parasite or virus in culture; format: cell-based; details: Escherichia coli, UBMS904TETM, 18 h
[11] = system: E. coli UBMS 90-5; experiment: microbe, parasite or virus in culture; format: cell-based; details: E. coli UBMS 90-5
[12] = system: E. coli #311 (MP); experiment: MIC, agar dilution; format: cell-based
[13] = system: E. coli ATCC 25922; experiment: MIC, agar dilution; format: cell-based; details: Escherichia coli, ATCC25922, 18 h
[14] = system: E. coli J3272 Tet D; experiment: microbe, parasite or virus in culture; format: cell-based; details: Escherichia coli, J3272TETD, 18 h
[15] = system: S. marcescens FPOR 8733; experiment: MIC, agar dilution; format: cell-based; details: Serratia marcescens, FPOR8733, 18 h
[16] = system: X. maltophilia NEMC 87210; experiment: MIC, agar dilution; format: cell-based; details: Stenotrophomonas maltophilia, NEMC87210, 18 h
[17] = system: Ps. aeruginosa ATCC 27853; experiment: MIC, agar dilution; format: cell-based
[18] = system: S. aureus NEMC 8769; experiment: MIC, agar dilution; format: cell-based; details: Staphylococcus aureus, NEMC8769, 18 h
[19] = system: S. aureus UBMS 88-4; experiment: MIC, agar dilution; format: cell-based; details: Staphylococcus aureus, UBMS884, 18 h
[20] = system: S. aureus UBMS 88-5 Tet M; experiment: microbe, parasite or virus in culture; format: cell-based; details: Staphylococcus aureus, UBMS885TETM, 18 h
[21] = system: S. aureus UBMS 88-7 Tet K; experiment: microbe, parasite or virus in culture; format: cell-based; details: Staphylococcus aureus, UBMS887TETK, 18 h
[22] = system: S. aureus UBMS 90-1 Tet M; experiment: microbe, parasite or virus in culture; format: cell-based; details: Staphylococcus aureus, UBMS901TETM, 18 h
[23] = system: S. aureus UBMS 90-3; experiment: MIC, agar dilution; format: cell-based; details: Staphylococcus aureus, UBMS903, 18 h
[24] = system: S. aureus UBMS 90-2 Tet M; experiment: microbe, parasite or virus in culture; format: cell-based; details: Staphylococcus aureus, UBMS902TETM, 18 h
[25] = system: S. aureus IVES 2943; experiment: MIC, agar dilution; format: cell-based; details: Staphylococcus aureus, IVES2943, 18 h
[26] = system: S. aureus ROSE (MP); experiment: MIC, agar dilution; format: cell-based; details: Staphylococcus aureus, 18 h
[27] = system: S. aureus SMITH (MP); experiment: MIC, agar dilution; format: cell-based; details: Staphylococcus aureus, 18 h
[28] = system: S. aureus IVES 1983; experiment: MIC, agar dilution; format: cell-based; details: Staphylococcus aureus, IVES1983, 18 h
[29] = system: S. aureus ATCC 29213; experiment: MIC, agar dilution; format: cell-based; details: Staphylococcus aureus, ATCC29213, 18 h, S. aureus ATCC 29213
[30] = system: S. hemolyticus AVHAH 88-3; experiment: MIC, agar dilution; format: cell-based; details: Streptococcus pyogenes, AVHAH883, 18 h
[31] = system: Enterococcus 12201; experiment: MIC, agar dilution; format: cell-based; details: Enterococcus, 12201, 18 h
[32] = system: E. faecalis ATCC 29212; experiment: MIC, agar dilution; format: cell-based; details: Enterococcus faecalis, ATCC29212, 18 h
[33] = system: Staphylococcus aureus strain Smith (tetracycline sensitive); experiment: Acute lethal infection in mice, S. aureus Smith; format: in vivo; details: for ED50: Staphylococcus aureus, 168 h, mice, S. aureus Smith (Sens), 7 day survival, read-out: ED50; for in vivo activity (in words): tested intravenously against the minocycline sensitive organism S. aureus Smith
[34] = system: E. coli J3272 Tet sens; experiment: MIC, agar dilution; format: cell-based; details: Escherichia coli, J3272TETSENS, 18 h
[35] = Escherichia coli, PRP1TETA, 18 h
[36] = Escherichia coli, J3272TETC, 18 h
[37] = Escherichia coli, UBMS905, 18 h, read-out: MIC
[38] = Pseudomonas aeruginosa, ATCC27853, 18 h, Ps. aeruginosa ATCC 27853, read-out: MIC

Compound	MIC [1] [µg/mL]	MIC [3, 35] [µg/mL]	MIC [4] [µg/mL]	MIC [5, 36] [µg/mL]	MIC [6] [µg/mL]	MIC [7] [µg/mL]	MIC [8] [µg/mL]	MIC [9] [µg/mL]	MIC [10] [µg/mL]	MIC [11, 37] [µg/mL]	MIC ([12]; Escherichia coli, 18 h) [µg/mL]	MIC [13] [µg/mL]	MIC [14] [µg/mL]	MIC ([15]; read-out: MIC) [µg/mL]	MIC [16] [µg/mL]	MIC [20] [µg/mL]	MIC [21] [µg/mL]	MIC [22] [µg/mL]	MIC [28] [µg/mL]	MIC [29] [µg/mL]	further results
CN(C)[C@@H]1C(O)=C(C(N)=O)C(=O)[C@@]2(O)C(O)=C3C(=O)c4c(ccc(NC(=O)CNCC5CC5)c4O)CC3CC12 (stereo partly drawn) [Q, [4S-(4alpha,12aalpha)]-9-[[[(Cyclopropylmethyl)amino]acetyl]amino]-4-(dimethylamino)-1,4,4a,5,5a,6,11,12a-octahydro-3,10,12,12a-tetrahydroxy-1,11-dioxo-2-naphthacenecarboxamide dihydrochloride]	0.5	2	1	0.5	0.5	1	1	0.25	0.25	0.5	1	0.5	0.25	8	4	0.5	8	0.5	4	0.5	MIC [2]: 0.25 µg/mL; MIC ([17]; Pseudomonas aeruginosa, ATCC27853, 18 h): 16 µg/mL; MIC [18]: 0.5 µg/mL; MIC [19]: 0.5 µg/mL; MIC [23]: 0.5 µg/mL; MIC [24]: 0.5 µg/mL; MIC [25]: 8 µg/mL; MIC [26]: 16 µg/mL; MIC [27]: 0.5 µg/mL; MIC [30]: 4 µg/mL; MIC [31]: 0.5 µg/mL; MIC [32]: 0.25 µg/mL; ED50 ([33]; po, Oral): > 16 mg/kg; in vivo activity (in words) [33]: very good in vivo activity
CCCCCCNCC(=O)Nc1ccc2c(c1O)C(=O)C1=C(O)[C@]3(O)C(=O)C(C(N)=O)=C(O)[C@@H](N(C)C)C3CC1C2 (stereo partly drawn) [G, [4S-(4alpha,12aalpha)]-4-(Dimethylamino)-9-[[(hexylamino)acetyl]amino]-1,4,4a,5,5a,6,11,12a-octahydro-3,10,12,12a-tetrahydroxy-1,11-dioxo-2-naphthacenecarboxamide dihydrochloride]	1	1	1	1	0.25	1	1	0.12	0.5	1	1	1	0.5	8	1	0.5	1	1	1	0.5	MIC [2]: 0.12 µg/mL; MIC [17, 38]: 32 µg/mL; MIC ([18]; read-out: MIC): 0.12 µg/mL; MIC [19]: 0.25 µg/mL; MIC [23]: 0.25 µg/mL; MIC [24]: 0.25 µg/mL; MIC [25]: 2 µg/mL; MIC ([26]; read-out: MIC): 4 µg/mL; MIC [27]: 0.25 µg/mL; MIC [30]: 2 µg/mL; MIC [31]: 0.25 µg/mL; MIC ([32]; E. faecalis ATCC 29212, read-out: MIC): 0.12 µg/mL; ED50 ([33]; iv, Intraveneous): > 4 mg/kg; ED50 ([33]; po, Oral): > 16 mg/kg; in vivo activity (in words) [33]: very good in vivo activity
CN(C)[C@@H]1C(O)=C(C(N)=O)C(=O)[C@@]2(O)C(O)=C3C(=O)c4c(ccc(NC(=O)CBr)c4O)CC3CC12 (stereo partly drawn) [R, [4S-(4alpha,12aalpha)]-9-((Bromoacetyl)amino]-4-(dimethylamino)-1,4,4a,5,5a,6,11,12a-octahydro-3,10,12,12a-tetrahydroxy-1,11-dioxo-2-naphthacenecarboxamide monohydrochloride]	> 32	> 32	> 32	> 32	8	32	32	1	32	32	16	16	> 32		16	2	8	1	16	1	MIC [34]: 32 µg/mL; MIC [15]: > 32 µg/mL; MIC [17, 38]: > 32 µg/mL; MIC ([18]; read-out: MIC): 0.25 µg/mL; MIC ([19]; S. aureus UBMS 88-4, read-out: MIC): 0.5 µg/mL; MIC [23]: 1 µg/mL; MIC [24]: 2 µg/mL; MIC [25]: 16 µg/mL; MIC [26]: 16 µg/mL; MIC [27]: 1 µg/mL; MIC [30]: 8 µg/mL; MIC [31]: 4 µg/mL; MIC [32]: 2 µg/mL
CN(C)CC(=O)Nc1ccc2c(c1O)C(=O)C1=C(O)[C@]3(O)C(=O)C(C(N)=O)=C(O)[C@@H](N(C)C)C3CC1C2 (stereo partly drawn) [AA, [4S-(4alpha,12aalpha)]-4-(Dimethylamino)-9-[[(dimethylamino)acetyl]amino]-1,4,4a,5,5a,6,11,12a-octahydro-3,10,12,12a-tetrahydroxy-1,11-dioxo-2-naphthacenecarboxamide disulfate]	0.25		0.25		0.25	0.25	0.25		0.25			0.25		4			1	0.25	2	< 0.015	MIC [34]: 0.25 µg/mL; MIC [3]: 2 µg/mL; MIC [5]: 1 µg/mL; MIC [11]: 0.25 µg/mL; MIC ([12]; E. coli #311 (MP)): 0.50 µg/mL; MIC ([16]; X. maltophilia NEMC 87210, read-out: MIC): 2 µg/mL; MIC ([17]; Ps. aeruginosa ATCC 27853): 16 µg/mL; MIC [18]: 0.03 µg/mL; MIC ([23]; S. aureus UBMS 90-3): 0.06 µg/mL; MIC ([25]; S. aureus IVES 2943, read-out: MIC): 1 µg/mL; MIC [26]: 4 µg/mL; MIC ([30]; S. hemolyticus AVHAH 88-3, read-out: MIC): 0.5 µg/mL; ED50 ([33]; iv, Intraveneous): 0.5 to 1 mg/kg; ED50 ([33]; po, Oral): > 16 mg/kg; in vivo activity (in words) [33]: very good in vivo activity
